Measurements as given in publication PMC5705954, “Investigation of Non-Covalent Interactions of Aflatoxins (B1, B2, G1, G2, and M1) with Serum Albumin” (Toxins, 2017).
Read-outs that look alike come from different tables or passages of the source.

Tests used:
[1] = target: bovine serum albumin (BSA) (Bos taurus, UniProt P02769); type: binding; conditions: pH 7.4
rat serum albumin (RSA) = rat serum albumin (RSA) (Rattus norvegicus, UniProt P02770); type: binding; conditions: pH 7.4
[2] = target: porcine serum albumin (PSA) (Sus scrofa, UniProt P08835); type: binding; conditions: pH 7.4
porcine serum albumin (PSA), sequence (P08835 25-607 limits assumed): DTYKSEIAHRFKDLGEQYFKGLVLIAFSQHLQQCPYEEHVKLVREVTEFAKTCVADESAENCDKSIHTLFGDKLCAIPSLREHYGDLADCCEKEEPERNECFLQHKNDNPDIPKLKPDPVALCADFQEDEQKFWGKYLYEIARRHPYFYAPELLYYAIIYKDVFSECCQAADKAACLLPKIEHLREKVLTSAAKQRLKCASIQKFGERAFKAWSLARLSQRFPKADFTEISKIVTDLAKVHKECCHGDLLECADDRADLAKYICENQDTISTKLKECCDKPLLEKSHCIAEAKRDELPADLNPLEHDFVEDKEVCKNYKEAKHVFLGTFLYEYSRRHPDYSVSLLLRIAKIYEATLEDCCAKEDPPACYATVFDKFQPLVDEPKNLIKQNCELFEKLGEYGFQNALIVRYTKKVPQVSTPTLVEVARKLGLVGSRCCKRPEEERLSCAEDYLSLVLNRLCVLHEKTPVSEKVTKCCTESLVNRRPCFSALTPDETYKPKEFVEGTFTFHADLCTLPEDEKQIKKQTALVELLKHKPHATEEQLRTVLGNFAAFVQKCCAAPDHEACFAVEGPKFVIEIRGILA

[3] = target: T1, human serum albumin (HSA) (Homo sapiens, UniProt P02768); assay: Thermodynamic studies (van't Hoff) of complex formation with HSA; type: binding; set-up: purchased Sigma-Aldrich
T1 sequence (P02768 25-609): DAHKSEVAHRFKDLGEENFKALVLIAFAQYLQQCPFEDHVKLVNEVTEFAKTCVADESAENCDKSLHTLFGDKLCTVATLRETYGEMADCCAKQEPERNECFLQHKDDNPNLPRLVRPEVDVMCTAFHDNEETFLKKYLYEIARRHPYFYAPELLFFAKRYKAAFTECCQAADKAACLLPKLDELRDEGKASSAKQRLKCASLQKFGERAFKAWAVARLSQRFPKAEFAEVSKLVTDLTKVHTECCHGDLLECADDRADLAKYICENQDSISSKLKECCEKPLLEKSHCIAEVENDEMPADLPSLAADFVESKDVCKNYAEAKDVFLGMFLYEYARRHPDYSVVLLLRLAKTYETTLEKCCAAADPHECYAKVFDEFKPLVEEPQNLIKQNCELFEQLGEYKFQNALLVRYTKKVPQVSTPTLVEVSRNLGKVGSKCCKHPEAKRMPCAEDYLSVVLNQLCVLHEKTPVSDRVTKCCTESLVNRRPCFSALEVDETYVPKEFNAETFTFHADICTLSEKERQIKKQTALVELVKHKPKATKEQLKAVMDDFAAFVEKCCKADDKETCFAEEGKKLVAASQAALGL
Protocol: In order to investigate the temperature dependence of AFB1-HSA interaction, binding constants were determined between 25 and 40 °C. […] Using the temperature-dependence of the stability constants, the thermodynamic parameters associated to the interaction of AFB1 with HSA was also determined using the van’t Hoff equation (Equation (5)). […]. This value is within the typical range of non-covalent interactions. ΔH and ΔS values of the AFB1-HSA complex formation were −10.48 kJ mol^−1 and 55.1 JK^−1 mol^−1, respectively. Comparing these values with the parameters obtained for previously examined mycotoxin-albumin complexes, namely citrinin-HSA and zearalenone-HSA (Table 1), we can conclude that the smaller enthalpy change is associated with higher entropy gain in agreement with the enthalpy-entropy compensation. […]
Fluorolog τ3 spectrofluorometric system (Jobin-Yvon/SPEX) was applied during thermodynamic studies using 280 nm excitation wavelength. […] The binding constants were determined by the Hyperquad2006 program package (Equation (4)). The enthalpy and entropy changes of complex formation between AFB1 and HSA molecules were calculated as follows: the logarithms of binding constants (logK) at different temperatures were plotted against the reciprocal temperature according to the van’t Hoff equation. […]

[4] = target: T1, human serum albumin (HSA); assay: Fluorescence quenching of HSA by aflatoxins; type: binding; set-up: purchased Sigma-Aldrich; conditions: pH 7.4
Protocol: In order to characterize aflatoxin-HSA interactions, fluorescence quenching studies were performed. Increasing aflatoxin concentrations (0–10 μM) were added to a standard amount of HSA (2 μM) then fluorescence emission spectra of HSA were recorded (λexc = 280 nm). […] To exclude the possible involvement of the inner filter effect, fluorescence emission intensities were corrected based on the absorbance of aflatoxins (Equation (1)). […].
Fluorescence measurements were performed employing Hitachi F-4500 fluorescence spectrophotometer. UV-Vis spectra were recorded applying Specord Plus 210 (Analytic Jena AG, Jena, Germany) spectrophotometer. All measurements were carried out at 25 °C.
During fluorescence quenching experiments, emission intensities of albumin were determined in the presence of 2 μM albumin with and without aflatoxins (0–10 μM) using 280 and 334 nm as excitation and emission wavelengths, respectively. Inner filter effects of aflatoxins were eliminated applying the following equation [33]:(1) Icor=Iobs×e^(Aexc+Aem)/2 where Icor and Iobs are the corrected and observed fluorescence emission intensities, respectively; while Aexc and Aem are the absorption of aflatoxins at 280 and 334 nm, respectively.
Complex formations of aflatoxins with albumins were investigated applying the Stern-Volmer equation:(2) I0/I=1+KSV×[Q] where I and I0 denote the fluorescence intensities of albumin with and without aflatoxins, respectively. KSV (with the unit of dm^3/mol) is the Stern-Volmer quenching constant and [Q] is the molar concentration of aflatoxins.
Association constants (Ka) and number of binding sites (n) were determined by linear fitting, employing the double logarithmic Stern-Volmer equation [33]:(3) log(I0−I)/I=logKa+n×log[Q] where I and I0 denote the fluorescence intensities of albumin with and without aflatoxins, respectively; while [Q] is the molar concentration of aflatoxins.
Thereafter, binding constants of aflatoxin-albumin complexes were quantified by Hyperquad2006 program package, assuming 1:1 stoichiometry, (4) I=I0+(IHG−I0)/2⋅[H]0⋅([H]0+[G]0+1/K−([H]0+[G]0+1/K)^2−4⋅[H]0⋅[G]0) where, I0 and I denote the emission intensities of albumin at 334 nm in the absence and presence of aflatoxins, respectively; IHG is the emission intensity of pure aflatoxin-albumin complex at 334 nm (calculated by the Hyperquad2006); K denotes the binding constant (with the unit of dm^3/mol); [H]0 and [G]0 are the total concentrations of albumin and aflatoxin, respectively.

[5] = target: warfarin-HSA interaction (Sudlow's Site I) (Homo sapiens, UniProt P02768); type: binding
warfarin-HSA interaction (Sudlow's Site I), sequence (P02768 25-609 limits assumed): as the sequence (P02768 25-609) above

[6] = target: T1, human serum albumin (HSA); conditions: cited from earlier work
[7] = target: T1, human serum albumin (HSA); set-up: purchased Sigma-Aldrich; conditions: cited from earlier work
[8] = previously reported data ref 16
[9] = previously reported data ref 20

bovine serum albumin (BSA), sequence (P02769 25-607 limits assumed): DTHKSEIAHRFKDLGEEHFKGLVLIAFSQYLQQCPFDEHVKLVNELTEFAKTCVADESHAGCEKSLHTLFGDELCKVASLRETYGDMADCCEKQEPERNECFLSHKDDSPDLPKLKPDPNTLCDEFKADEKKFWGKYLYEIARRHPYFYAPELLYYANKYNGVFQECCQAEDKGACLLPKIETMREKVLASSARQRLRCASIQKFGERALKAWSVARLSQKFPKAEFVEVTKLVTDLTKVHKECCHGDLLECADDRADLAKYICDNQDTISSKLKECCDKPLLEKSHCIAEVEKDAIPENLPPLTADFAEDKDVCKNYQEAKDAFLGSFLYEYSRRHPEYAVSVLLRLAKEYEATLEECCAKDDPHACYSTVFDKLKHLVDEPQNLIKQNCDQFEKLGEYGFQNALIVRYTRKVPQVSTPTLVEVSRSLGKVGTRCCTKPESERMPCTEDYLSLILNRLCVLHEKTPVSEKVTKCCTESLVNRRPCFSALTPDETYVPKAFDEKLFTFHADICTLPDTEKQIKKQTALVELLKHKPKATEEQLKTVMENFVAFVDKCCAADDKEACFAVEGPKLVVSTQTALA
rat serum albumin (RSA), sequence (P02770 25-608 limits assumed): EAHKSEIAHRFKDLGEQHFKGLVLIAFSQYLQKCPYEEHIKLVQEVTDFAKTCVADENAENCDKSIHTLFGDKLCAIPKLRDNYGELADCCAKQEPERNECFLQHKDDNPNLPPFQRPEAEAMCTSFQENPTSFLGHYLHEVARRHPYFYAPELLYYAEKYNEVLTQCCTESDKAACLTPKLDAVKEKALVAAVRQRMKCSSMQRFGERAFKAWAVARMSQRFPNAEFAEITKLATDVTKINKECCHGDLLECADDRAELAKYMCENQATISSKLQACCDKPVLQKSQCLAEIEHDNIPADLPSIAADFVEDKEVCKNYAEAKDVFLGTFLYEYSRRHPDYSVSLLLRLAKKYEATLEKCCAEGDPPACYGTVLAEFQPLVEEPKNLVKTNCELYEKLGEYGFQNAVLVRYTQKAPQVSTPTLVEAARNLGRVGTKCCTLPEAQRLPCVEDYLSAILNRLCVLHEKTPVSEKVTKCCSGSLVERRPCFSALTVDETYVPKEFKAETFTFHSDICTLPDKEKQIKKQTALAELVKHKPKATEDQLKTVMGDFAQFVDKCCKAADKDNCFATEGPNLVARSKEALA

Row | SMILES | logK (binding constant) [4] | logKSV (Stern-Volmer quenching constant) [4] | logKa (association constant) [4] | n (number of binding sites) [4] | effect on fluorescence signal of HSA-bound warfarin at 379 nm (displacement of WAR from HSA) [5] | other results
1 | COc1cc2c(c3oc(=O)c4c(c13)CCC4=O)[C@H]1C=CO[C@H]1O2 [AFB1, aflatoxin B1] | 4.65 ± 0.01 | 4.44 ± 0.06 | 4.46 ± 0.08 | 1.005 ± 0.029 | significant decrease of the fluorescence signal at 379 nm | logK (binding constant) [1]: 4.63 ± 0.01; logKSV (Stern-Volmer quenching constant) [1]: 4.41 ± 0.06; logKa (association constant) [1]: 4.44 ± 0.01; n (number of binding sites) [1]: 1.006 ± 0.015; logK (binding constant) (rat serum albumin (RSA)): 4.91 ± 0.01; logKSV (Stern-Volmer quenching constant) (rat serum albumin (RSA)): 4.82 ± 0.01; logKa (association constant) (rat serum albumin (RSA)): 4.90 ± 0.11; n (number of binding sites) (rat serum albumin (RSA)): 0.998 ± 0.051; logK (binding constant) [2]: 4.62 ± 0.01; logKSV (Stern-Volmer quenching constant) [2]: 4.45 ± 0.00; logKa (association constant) [2]: 4.52 ± 0.10; n (number of binding sites) [2]: 1.023 ± 0.034; ΔG (298.16 K) of complex formation with HSA [3]: -6.429 kcal/mol; ΔH of complex formation with HSA [3]: -2.505 kcal/mol
2 | COc1cc2c(c3oc(=O)c4c(c13)CCC4=O)[C@@H]1CCO[C@@H]1O2 [AFB2, aflatoxin B2] | 4.55 ± 0.01 | 4.21 ± 0.02 | 4.40 ± 0.08 | 1.054 ± 0.000 | considerably decreased the fluorescence intensity of WAR at 379 nm | –
3 | COc1cc2c(c3oc(=O)c4c(c13)CCOC4=O)C1C=COC1O2 (stereo not shown) [AFG1, aflatoxin G1] | 4.58 ± 0.01 | 4.33 ± 0.04 | 4.43 ± 0.03 | 1.020 ± 0.019 | Very similar spectroscopic changes | –
4 | COc1cc2c(c3oc(=O)c4c(c13)CCOC4=O)[C@@H]1CCO[C@@H]1O2 [AFG2, aflatoxin G2] | 4.34 ± 0.01 | 3.96 ± 0.04 | 4.04 ± 0.07 | 1.017 ± 0.025 | considerably decreased the fluorescence intensity of WAR at 379 nm | –
5 | COc1cc2c(c3oc(=O)c4c(c13)CCC4=O)[C@@]1(O)C=CO[C@H]1O2 [AFM1, aflatoxin M1] | 4.52 ± 0.01 | 4.28 ± 0.01 | 4.26 ± 0.00 | 1.004 ± 0.013 | considerably decreased the fluorescence intensity of WAR at 379 nm | –
6 | CN(C)c1ccc(N=Nc2ccc(S(=O)(=O)[O-])cc2)cc1.[Na+] [MO, methyl orange] | – | – | – | – | – | logK of MO-HSA complex [6]: ~ 5
7 | CC1=C2C(=CO[C@H](C)[C@H]2C)C(O)=C(C(=O)O)C1=O [citrinin] | – | – | – | – | – | ΔG (298.16 K) of complex formation with HSA [7, 8]: -7.161 kcal/mol; ΔH of complex formation with HSA [7, 8]: -5.772 kcal/mol; ΔS of complex formation with HSA [7, 8]: 20.90 JK^−1 mol^−1
8 | C[C@H]1CCCC(=O)CCC/C=C/c2cc(O)cc(O)c2C(=O)O1 [zearalenone] | – | – | – | – | – | ΔG (298.16 K) of complex formation with HSA [7, 9]: -6.946 kcal/mol; ΔH of complex formation with HSA [7, 9]: -7.192 kcal/mol; ΔS of complex formation with HSA [7, 9]: −3.50 JK^−1 mol^−1
